Here are results for one molecule from patent US20230049145A1, “GLYCOSYLATED POLYPEPTIDES” (FRESENIUS KABI DEUTSCHLAND GMBH, priority 2019, published 2023).

The subject of data set [1] is CHO cells. Briefly: Glycosylation profile of recombinant human EPO produced in CHO cells in perfusion culture supplemented with kifunensine. It counts as cell-based, Chinese hamster. The following applies: CHO perfusion culture 18 days, 12 μg/L kifunensine from day 0. As for the experimental part:
CHO cells transfected with expression vectors encoding recombinant human EPO (UniProt Accession No. P01588, Sequence Version 1, Entry Version 195) are cultured in perfusion bioreactors for 18 days under standard operating parameters. The culture medium is supplemented with 12 μg/L kifunensine from day 0.
Recombinant human EPO produced during the culture period is harvested throughout the production phase and at the end of the culture period, a sample is obtained to determine the glycosylation profile. The resultant recombinant human EPO has increased mannosylation and sialylation compared to that produced in cultures without kifunensine.

Data set [2] deals with CHO cells. The data set is described as follows: Cell viability of CHO fed-batch cultures supplemented with kifunensine. It counts as cell-based, Chinese hamster. Particulars: CHO fed-batch cultures, 30, 40, 50 or 60 nM kifunensine added on day 3. As for the experimental part:
(§1) CHO cells transfected with expression vectors encoding SEQ ID NOs: 3 and 4 (which correspond to the heavy and lights chains respectively of the human anti-RANKL IgG2 monoclonal antibody, denosumab) were cultured in bioreactors using standard fed-batch methods. To examine the effects of kifunensine on the Fc-glycan sialylation levels of the resulting IgG2, the cultures were supplemented with either 30, 40, 50 or 60 nM kifunensine on day 3 of the culture. A control culture was also maintained under the same conditions albeit in the absence of kifunensine.

Data set [3] deals with Sp2/0 cells. Briefly: Cell viability of Sp2/0 perfusion cultures supplemented with kifunensine. It counts as cell-based, Murine. Particulars: Sp2/0 perfusion cultures, 3, 6, 9 or 12 μg/L kifunensine (13, 26, 39 or 52 nM), 30 days. The method, then: (§2) Murine Sp2/0 cells transfected with expression vectors encoding SEQ ID NOs: 1 and 2 (which correspond to the heavy and light chains respectively of the human anti-TNFα IgG1 monoclonal antibody, golimumab) were cultured in perfusion bioreactors for 30 days under standard operating parameters. To examine the effect of kifunensine on the sialylation levels of the resulting IgG1, the perfusion cultures were supplemented with either 3, 6, 9, or 12 μg/L kifunensine (corresponding to 13 nM, 26 nM, 39 nM or 52 nM). A control culture was also maintained under the same conditions albeit in the absence of kifunensine.

Data set [4] deals with Sp2/0 cells. The data set is described as follows: Sialylation of human IgG1 antibody (golimumab) produced in Sp2/0 cells in perfusion culture supplemented with kifunensine; glycan analysis by HILIC. It is filed as cell-based, Murine. The following applies: IgG1 (golimumab) from Sp2/0 cells. The method, then: as §2
(§3) On culture day 18, samples were taken from the perfusion bioreactors and the percentage sialylation of the IgG1 antibodies was determined by glycan analysis. Briefly, antibodies were first purified using protein A chromatography, glycans were then enzymatically released from the antibody, fluorescently labelled with 2-aminobenzamide and analysed using hydrophilic interaction chromatography (HILIC) based methods.

The subject of data set [5] is CHO cells. The data set is described as follows: Fc-glycan sialylation of human IgG2 antibody (denosumab) produced in CHO cells in fed-batch culture supplemented with kifunensine. It counts as cell-based, Chinese hamster. The following applies: IgG2 (denosumab) from CHO cells, day 20, FIG. 2. As for the experimental part:
as §3, §1
On day 20, samples were taken from bioreactors and the percentage Fc-glycan sialylation of the IgG2 antibodies was determined as described in Example 1.

As for `O=C1N[C@@H]2[C@@H](O)[C@@H](O)[C@H](O)[C@@H](CO)N2C1=O` [kifunensine, (5R,6R,7S,8R,8aS)-6,7,8-trihydroxy-5-(hydroxymethyl)-1,5,6,7,8,8a-hexahydroimidazo[1,2-a]pyridine-2,3-dione], in the data set on CHO cells [1], the “mannosylation of recombinant human EPO compared to cultures without kifunensine” value is reported as “increased” and the “sialylation of recombinant human EPO compared to cultures without kifunensine” value was “increased”. Further, the “impact on cell viability” value with CHO cells [2] is given as “No significant impact on cell viability”. In addition, the “impact on cell viability” value with Sp2/0 cells [3] is “No significant impact on cell viability”. The “kifunensine concentration giving peak sialylation levels” value in the data set with Sp2/0 cells [4] (culture day 18, FIG. 1) worked out at 12 µg/L. For the same molecule, the “kifunensine concentration at which an increase in sialylation compared to control was evident” value with Sp2/0 cells [4] (culture day 18, FIG. 1, particularly 9 and 12 μg/L) is at least 6 µg/L. In the data set with Sp2/0 cells [4] (culture day 18, conversion of 12 μg/L), the “kifunensine concentration giving peak sialylation levels (molar)” value is listed as around 52 nM. Also, in the data set with CHO cells [5], the “kifunensine concentration at which an increase in Fc-glycan sialylation compared to control was evident” value is given as above 40 nM and the “kifunensine concentration giving peak Fc-glycan sialylation” value is listed as 60 nM.
